Assay results published in patent US11458123B2 (Arvinas, Inc., priority 2016, dated 2022).

The compounds below were run on tau protein (assay: Tau protein in vitro degradation assay (Western blot, Tau-13 antibody)). Settings: SK-N-SH cells; 72 hours of incubation; tested at 300 nM, 100 nM, 33 nM and 11 nM; Western blot, Tau-13 antibody.
Assay type: cell-based, human
Procedure, shortened: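 Tau degradation read by Tau-13 Western blot (detects all human tau forms) of SDS-PAGE-resolved lysates from SK-N-SH cells. Cells were plated at least 18 h before 72 h exposure to PROTACs at either 1000/300/100 nM or 300/100/33/11 nM.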

Q: With `Cn1c2ccncc2c2ccc(-c3ccc(O[C@H]4C[C@H](Oc5ccc(C#CCCCCOc6ccc7c(c6)C(=O)N(C6CCC(=O)NC6=O)C7=O)cc5)C4)nc3)cc21` (stereo partly shown) [Compound 124, 2-(2,6-dioxopiperidin-3-yl)-5-((6-(4-((1r,3r)-3-((5-(5-methyl-5H-pyrido[4,3-b]indol-7-yl)pyridin-2-yl)oxy)cyclobutoxy)phenyl)hex-5-yn-1-yl)oxy)isoindoline-1,3-dione] as the compound, how does the “Degradation activity* (highest amount of degradation observed at any dosage; tau protein remaining)” value read?
A: Its value is “C (>80% tau protein remaining after 72 hours of incubation with the test compound)”.

Q: For `Cn1c2ccncc2c2ccc(-c3ccc(O[C@H]4C[C@H](Oc5ccc(CCCOC6CN(c7ccc8c(c7)C(=O)N(C7CCC(=O)NC7=O)C8=O)C6)nc5)C4)nc3)cc21` (stereo partly shown) [Compound 156, 2-(2,6-dioxopiperidin-3-yl)-5-(3-(3-(5-((1r,3r)-3-((5-(5-methyl-5H-pyrido[4,3-b]indol-7-yl)pyridin-2-yl)oxy)cyclobutoxy)pyridin-2-yl)propoxy)azetidin-1-yl)isoindoline-1,3-dione], which “Degradation activity* (highest amount of degradation observed at any dosage; tau protein remaining)” value is on record?
A: The value was “C (>80% tau protein remaining after 72 hours of incubation with the test compound)”.

Q: `Cn1c2ccncc2c2ccc(-c3ccc(O[C@H]4C[C@H](Oc5cccc(OCCCCCCOc6ccc7c(c6)C(=O)N(C6CCC(=O)NC6=O)C7=O)n5)C4)nc3)cc21` (stereo partly shown) [Compound 108, 2-(2,6-dioxopiperidin-3-yl)-5-((6-((6-((1r,3r)-3-((5-(5-methyl-5H-pyrido[4,3-b]indol-7-yl)pyridin-2-yl)oxy)cyclobutoxy)pyridin-2-yl)oxy)hexyl)oxy)isoindoline-1,3-dione] was tested. Which “Degradation activity* (highest amount of degradation observed at any dosage; tau protein remaining)” value did it give?
A: Its value is “C (>80% tau protein remaining after 72 hours of incubation with the test compound)”.

Q: With `Cn1c2ccncc2c2ccc(-c3ccc(C#CCOCCOCCOCCOCCOc4ccc5c(c4)C(=O)N(C4CCC(=O)NC4=O)C5=O)nc3)cc21` (stereo not shown) [Compound 71, 2-(2,6-dioxopiperidin-3-yl)-5-((15-(5-(5-methyl-5H-pyrido[4,3-b]indol-7-yl)pyridin-2-yl)-3,6,9,12-tetraoxapentadec-14-yn-1-yl)oxy)isoindoline-1,3-dione] as the compound, how does the “Degradation activity* (highest amount of degradation observed at any dosage; tau protein remaining)” value read?
A: The value was “A (≤50% tau protein remaining after 72 hours of incubation with the test compound)”.

Same assay, conditions: SK-N-SH cells; 72 hours of incubation; tested at 1000 nM, 300 nM and 100 nM

Q: `O=C1CCC(N2C(=O)c3cccc(NCCOCCOCCOCCOc4ccc(-c5ccc6c(c5)[nH]c5ccncc56)cn4)c3C2=O)C(=O)N1` (stereo not shown) [Compound 2, 4-(2-(2-(2-(2-(5-(5H-pyrido[4,3-b]indol-7-yl)pyridin-2-yloxy)ethoxy)ethoxy)ethoxy)ethylamino)-2-(2,6-dioxopiperidin-3-yl)isoindoline-1,3-dione] was tested. Which “Activity* (highest amount of degradation observed at any dosage, as tau protein remaining)” value did it give?
A: The value was “A (≤50% tau protein remaining after 72 hours of incubation with the test compound)”.

Q: `Cc1ncsc1-c1ccc(CNC(=O)[C@@H]2C[C@@H](O)CN2C(=O)[C@@H](NC(=O)COCCOCCOc2ccc(-c3ccc4c(c3)[nH]c3ccncc34)cn2)C(C)(C)C)cc1` [Compound 5, (2S,4R)-1-((S)-2-(2-(2-(2-(5-(5H-pyrido[4,3-b]indol-7-yl)pyridin-2-yloxy)ethoxy)ethoxy)acetamido)-3,3-dimethylbutanoyl)-4-hydroxy-N-(4-(4-methylthiazol-5-yl)benzyl)pyrrolidine-2-carboxamide] was tested. Which “Activity* (highest amount of degradation observed at any dosage, as tau protein remaining)” value did it give?
A: Its value is “C (>80% tau protein remaining after 72 hours of incubation with the test compound)”.

Q: How did the “Activity* (highest amount of degradation observed at any dosage, as tau protein remaining)” value turn out when `Cc1ncoc1-c1ccc(CNC(=O)[C@@H]2C[C@@H](O)CN2C(=O)[C@@H](NC(=O)COCCOCCOCCOCCN2CCN(c3ccn4c(n3)nc3ccccc34)CC2)C(C)(C)C)cc1` [Compound 12, (2S,4R)-1-((S)-17-(4-(benzo[4,5]imidazo[1,2-a]pyrimidin-2-yl)piperazin-1-yl)-2-(tert-butyl)-4-oxo-6,9,12,15-tetraoxa-3-azaheptadecanoyl)-4-hydroxy-N-(4-(4-methyloxazol-5-yl)benzyl)pyrrolidine-2-carboxamide] was run?
A: Its value is “C (>80% tau protein remaining after 72 hours of incubation with the test compound)”.
